A word on the inhibition: it is how much of the control response was suppressed.

Molecules are shown by their SMILES.

Experimental findings from ChEMBL document CHEMBL5653631, “A Potent and Selective ULK1 Inhibitor Suppresses Autophagy and Sensitizes Cancer Cells to Nutrient Stress” (iScience, 2018) are described below.

Experiment [1] has as its target T1, Mitogen-activated protein kinase kinase kinase 5 (Homo sapiens) (UniProt Q99683).
T1 sequence (whole entry): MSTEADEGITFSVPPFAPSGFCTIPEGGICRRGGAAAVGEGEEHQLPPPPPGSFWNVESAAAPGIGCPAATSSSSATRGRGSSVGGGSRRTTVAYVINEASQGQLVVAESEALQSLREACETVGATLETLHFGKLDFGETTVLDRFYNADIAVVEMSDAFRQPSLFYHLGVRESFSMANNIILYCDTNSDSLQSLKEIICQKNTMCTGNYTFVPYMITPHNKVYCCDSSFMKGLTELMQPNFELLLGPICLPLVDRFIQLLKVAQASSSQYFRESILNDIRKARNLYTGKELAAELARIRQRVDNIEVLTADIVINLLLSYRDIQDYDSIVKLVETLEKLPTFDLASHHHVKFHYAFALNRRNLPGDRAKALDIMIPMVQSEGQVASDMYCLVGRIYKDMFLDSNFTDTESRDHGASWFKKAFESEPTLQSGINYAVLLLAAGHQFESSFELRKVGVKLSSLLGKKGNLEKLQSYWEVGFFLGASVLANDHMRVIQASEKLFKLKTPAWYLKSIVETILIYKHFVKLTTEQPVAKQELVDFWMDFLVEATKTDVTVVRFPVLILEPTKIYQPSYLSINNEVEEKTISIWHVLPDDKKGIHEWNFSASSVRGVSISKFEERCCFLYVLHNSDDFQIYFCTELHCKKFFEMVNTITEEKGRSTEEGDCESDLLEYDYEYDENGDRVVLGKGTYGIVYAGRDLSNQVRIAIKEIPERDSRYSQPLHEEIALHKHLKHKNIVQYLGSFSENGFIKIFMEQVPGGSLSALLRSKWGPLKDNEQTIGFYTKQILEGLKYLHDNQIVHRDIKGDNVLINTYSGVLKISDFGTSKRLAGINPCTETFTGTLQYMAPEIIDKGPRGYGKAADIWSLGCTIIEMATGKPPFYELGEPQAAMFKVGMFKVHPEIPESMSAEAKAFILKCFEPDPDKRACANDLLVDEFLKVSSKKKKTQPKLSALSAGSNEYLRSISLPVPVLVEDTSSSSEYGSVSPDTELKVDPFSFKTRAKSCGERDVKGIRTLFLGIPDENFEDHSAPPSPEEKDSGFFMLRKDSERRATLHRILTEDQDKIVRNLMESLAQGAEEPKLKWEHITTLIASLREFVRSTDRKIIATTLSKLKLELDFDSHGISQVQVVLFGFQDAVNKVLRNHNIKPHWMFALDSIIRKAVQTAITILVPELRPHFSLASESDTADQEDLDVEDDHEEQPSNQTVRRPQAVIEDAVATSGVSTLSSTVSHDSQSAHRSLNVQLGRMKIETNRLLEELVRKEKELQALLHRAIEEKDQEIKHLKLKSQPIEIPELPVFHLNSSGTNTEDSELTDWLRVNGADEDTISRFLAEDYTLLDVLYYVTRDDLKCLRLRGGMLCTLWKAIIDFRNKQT
Kind of experiment: Inhibition of human recombinant MAP3K5 at 15 nM related to control ULK1.

The target of experiment [2] is Serine/threonine-protein kinase MAK (Homo sapiens) (UniProt P20794). Kind of experiment: Inhibition of human recombinant MAK at 15 nM related to control ULK1.
The target in experiment [3] is Serine/threonine-protein kinase N1 (Homo sapiens) (UniProt Q16512). In words: Inhibition of human recombinant PKN1 at 40 nM related to control ULK1.
For experiment [4], the target named is T2, Serine/threonine-protein kinase 17A (Homo sapiens) (UniProt Q9UEE5).
T2 sequence (whole entry): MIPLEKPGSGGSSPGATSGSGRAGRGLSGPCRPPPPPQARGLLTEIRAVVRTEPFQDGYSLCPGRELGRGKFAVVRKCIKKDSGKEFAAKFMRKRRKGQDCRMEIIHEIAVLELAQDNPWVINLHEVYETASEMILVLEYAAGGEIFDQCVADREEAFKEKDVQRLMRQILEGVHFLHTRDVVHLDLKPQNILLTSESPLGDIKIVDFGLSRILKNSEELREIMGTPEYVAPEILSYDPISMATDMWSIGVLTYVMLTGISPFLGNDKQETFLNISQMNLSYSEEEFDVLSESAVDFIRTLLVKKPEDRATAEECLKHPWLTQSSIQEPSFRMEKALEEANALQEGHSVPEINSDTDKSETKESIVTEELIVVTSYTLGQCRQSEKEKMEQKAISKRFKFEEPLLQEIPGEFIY
Kind of experiment: Inhibition of human recombinant DRAK1 at 40 nM in presence of ATP by radiometric assay relative to control.

Experiment [5] addresses Serine/threonine-protein kinase 32A (Homo sapiens) (UniProt Q8WU08). Kind of experiment: Inhibition of human recombinant YANK1 at 40 nM related to control ULK1.
In experiment [6] the target is Serine/threonine-protein kinase SBK1 (Homo sapiens) (UniProt Q52WX2). In words: Inhibition of human recombinant SBK1 at 40 nM related to control ULK1.
The target of experiment [7] is T3, Serine/threonine-protein kinase DCLK2 (Homo sapiens) (UniProt Q8N568).
T3 sequence (whole entry): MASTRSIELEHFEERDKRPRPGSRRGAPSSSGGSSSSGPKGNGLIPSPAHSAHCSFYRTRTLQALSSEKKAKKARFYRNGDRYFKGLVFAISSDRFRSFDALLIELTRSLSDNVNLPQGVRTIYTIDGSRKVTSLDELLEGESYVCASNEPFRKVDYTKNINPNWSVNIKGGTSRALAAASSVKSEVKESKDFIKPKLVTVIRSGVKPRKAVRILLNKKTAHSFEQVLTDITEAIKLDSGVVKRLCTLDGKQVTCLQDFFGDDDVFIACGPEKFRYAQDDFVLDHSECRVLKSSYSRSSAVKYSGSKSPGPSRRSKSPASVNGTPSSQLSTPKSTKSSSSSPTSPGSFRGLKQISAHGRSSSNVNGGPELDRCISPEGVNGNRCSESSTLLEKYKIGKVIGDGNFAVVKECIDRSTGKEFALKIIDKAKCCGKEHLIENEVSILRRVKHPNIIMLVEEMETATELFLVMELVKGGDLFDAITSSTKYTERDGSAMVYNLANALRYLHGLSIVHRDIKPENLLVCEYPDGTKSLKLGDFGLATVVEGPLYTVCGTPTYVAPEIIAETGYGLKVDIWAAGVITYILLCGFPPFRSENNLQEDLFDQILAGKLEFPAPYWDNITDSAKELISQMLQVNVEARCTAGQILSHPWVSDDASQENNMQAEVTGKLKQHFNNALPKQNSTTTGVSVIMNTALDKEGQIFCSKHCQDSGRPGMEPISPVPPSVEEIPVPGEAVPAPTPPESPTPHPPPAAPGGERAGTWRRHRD
In words: Inhibition of human recombinant DCAMKL2 at 40 nM related to control ULK1.

The target in experiment [8] is cAMP-dependent protein kinase catalytic subunit alpha (Homo sapiens) (UniProt P17612). In words: Inhibition of human recombinant PKACalpha at 500 nM related to control ULK1.

Sequence of Serine/threonine-protein kinase N1 (Homo sapiens) (Q16512 2-942 limits assumed): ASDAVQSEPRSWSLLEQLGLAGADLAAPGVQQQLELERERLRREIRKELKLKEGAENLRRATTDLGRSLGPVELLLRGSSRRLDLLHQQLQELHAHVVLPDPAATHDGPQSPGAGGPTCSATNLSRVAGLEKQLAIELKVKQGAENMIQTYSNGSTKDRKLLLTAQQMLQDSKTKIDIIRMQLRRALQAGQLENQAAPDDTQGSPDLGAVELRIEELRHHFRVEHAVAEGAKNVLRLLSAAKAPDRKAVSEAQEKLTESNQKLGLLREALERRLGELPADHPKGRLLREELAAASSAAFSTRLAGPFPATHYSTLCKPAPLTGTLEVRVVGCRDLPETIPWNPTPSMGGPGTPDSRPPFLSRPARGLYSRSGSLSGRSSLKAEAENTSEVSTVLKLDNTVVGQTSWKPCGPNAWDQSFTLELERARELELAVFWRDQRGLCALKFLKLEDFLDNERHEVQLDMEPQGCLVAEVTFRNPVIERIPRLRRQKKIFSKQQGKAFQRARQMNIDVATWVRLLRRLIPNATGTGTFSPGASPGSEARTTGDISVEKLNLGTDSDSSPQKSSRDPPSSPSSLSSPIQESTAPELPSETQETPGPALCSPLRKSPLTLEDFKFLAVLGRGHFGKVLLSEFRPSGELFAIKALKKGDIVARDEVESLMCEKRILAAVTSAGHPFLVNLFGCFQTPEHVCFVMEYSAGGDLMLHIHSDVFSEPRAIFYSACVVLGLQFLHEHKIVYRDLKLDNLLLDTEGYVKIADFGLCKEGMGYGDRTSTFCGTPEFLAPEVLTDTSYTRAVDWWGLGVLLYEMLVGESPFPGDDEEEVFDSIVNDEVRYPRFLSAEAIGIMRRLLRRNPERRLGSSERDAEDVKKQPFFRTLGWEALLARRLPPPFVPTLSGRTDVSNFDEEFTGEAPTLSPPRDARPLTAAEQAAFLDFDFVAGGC
Sequence of Serine/threonine-protein kinase SBK1 (Homo sapiens) (Q52WX2 whole entry): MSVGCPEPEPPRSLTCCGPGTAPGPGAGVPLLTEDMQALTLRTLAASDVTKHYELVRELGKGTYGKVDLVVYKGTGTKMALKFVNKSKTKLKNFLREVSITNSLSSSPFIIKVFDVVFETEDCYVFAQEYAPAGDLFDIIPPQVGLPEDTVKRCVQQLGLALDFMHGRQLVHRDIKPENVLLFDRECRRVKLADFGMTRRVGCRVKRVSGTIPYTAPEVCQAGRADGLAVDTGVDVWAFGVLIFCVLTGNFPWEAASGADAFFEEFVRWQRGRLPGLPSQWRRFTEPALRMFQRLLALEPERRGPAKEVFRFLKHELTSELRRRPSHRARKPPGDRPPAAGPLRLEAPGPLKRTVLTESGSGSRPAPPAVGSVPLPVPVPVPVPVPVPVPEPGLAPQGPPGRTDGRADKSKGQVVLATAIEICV
Sequence of Serine/threonine-protein kinase 32A (Homo sapiens) (Q8WU08 whole entry): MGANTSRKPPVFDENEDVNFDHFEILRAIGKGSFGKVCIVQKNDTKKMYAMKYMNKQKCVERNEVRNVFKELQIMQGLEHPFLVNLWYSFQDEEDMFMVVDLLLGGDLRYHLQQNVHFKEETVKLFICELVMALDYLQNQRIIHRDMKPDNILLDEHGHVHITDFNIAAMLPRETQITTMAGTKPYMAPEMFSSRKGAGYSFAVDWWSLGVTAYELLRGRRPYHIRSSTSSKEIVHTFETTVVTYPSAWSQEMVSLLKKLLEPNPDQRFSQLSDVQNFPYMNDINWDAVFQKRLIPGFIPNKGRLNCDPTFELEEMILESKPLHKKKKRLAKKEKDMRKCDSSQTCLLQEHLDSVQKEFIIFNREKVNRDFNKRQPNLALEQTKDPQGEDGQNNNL
Sequence of Serine/threonine-protein kinase MAK (Homo sapiens) (P20794 whole entry, looked up): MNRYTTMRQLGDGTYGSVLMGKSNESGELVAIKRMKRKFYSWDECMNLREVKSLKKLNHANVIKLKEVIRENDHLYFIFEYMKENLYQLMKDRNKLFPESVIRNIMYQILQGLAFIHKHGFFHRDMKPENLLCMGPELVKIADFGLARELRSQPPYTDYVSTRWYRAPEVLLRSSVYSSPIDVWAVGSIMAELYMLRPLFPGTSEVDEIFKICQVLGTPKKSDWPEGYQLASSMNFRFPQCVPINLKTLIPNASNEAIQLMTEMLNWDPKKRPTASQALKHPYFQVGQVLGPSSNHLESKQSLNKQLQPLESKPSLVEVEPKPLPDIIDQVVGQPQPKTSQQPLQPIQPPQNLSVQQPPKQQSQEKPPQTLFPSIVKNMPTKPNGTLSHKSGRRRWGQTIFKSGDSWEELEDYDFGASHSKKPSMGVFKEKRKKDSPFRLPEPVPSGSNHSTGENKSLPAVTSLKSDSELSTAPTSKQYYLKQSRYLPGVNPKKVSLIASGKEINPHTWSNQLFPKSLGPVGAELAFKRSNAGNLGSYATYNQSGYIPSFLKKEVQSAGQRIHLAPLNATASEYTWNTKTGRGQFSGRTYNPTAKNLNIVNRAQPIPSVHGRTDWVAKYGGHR

Regarding `CC(C)[C@H](NC(=O)c1cc(-c2cnn3cc(-c4ccc(OCCN5CCCCC5)cc4)cnc23)cs1)C(F)(F)F`, the fold change (FC) in experiment [1] is 0; in experiment [2], 0.06.
Turning to `O=C(N[C@@H](C1CC1)C(F)(F)F)c1cc(-c2cnn3cc(-c4ccc(F)cc4)cnc23)cs1`, the fold change (FC) in experiment [3] came to 0; in experiment [5] it was 0.05; in experiment [6] it was 0; in experiment [7], 0. In experiment [4], the inhibition was found to be 78%.
As to `CNC(=O)c1ccccc1Oc1nc(Nc2cc(OC)c(OC)c(OC)c2)ncc1Br`, the fold change (FC) in experiment [8] was determined as 0.
